Assay results from patent US20230167127A1, “COMPOUNDS AND THEIR USE IN THE TREATMENT OF BACTERIAL INFECTION” (Hoffmann-La Roche Inc., priority 2020, published 2023).
Counter-ions that a name gives are not always drawn.

Test system: Escherichia coli ATCC 25922
Assay: 50% growth inhibitory concentration (IC50) determination, Iso-Sensitest broth dilution
Format: cell-based
Conditions: Escherichia coli, ATCC25922, 16 h, strain Escherichia coli ATCC 25922; 10-point broth dilution, optical density at 600 nm over 16 h; read-out: Escherichia coli growth inhibition IC50
Method in brief: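 Growth was tracked as optical density at 600 nm every 20 minutes for 16 h at 35±2° C. Compounds from DMSO stocks were serially diluted twofold over 10 points (e.g. 50–0.097 μM final) in Iso-Sensitest broth. Inhibition computed in log-phase growth to give IC50.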

Row | SMILES | IC50 [nM]
1 | N#Cc1cccc2c1CC(CN[C@H]1C[C@@H](C3CN(c4ccc5c(n4)NC(=O)CO5)C(=O)O3)C1)C2 (stereo partly drawn) [Example 96, 2-[[[cis-3-[2-oxo-3-(3-oxo-4H-pyrido[3,2-b][1,4]oxazin-6-yl)-1,3-oxazolidin-5-yl]cyclobutyl]amino]methyl]-2,3-dihydro-1H-indene-4-carbonitrile; formic acid] | 187
2 | N#Cc1cccc2c1CC(CNCCC1CN(c3ccc4c(n3)NC(=O)CO4)C(=O)O1)C2O (racemic) [Example 139, rac-1,2-trans-1-hydroxy-2-[[2-[2-oxo-3-(3-oxo-4H-pyrido[3,2-b][1,4]oxazin-6-yl)-1,3-oxazolidin-5-yl]ethylamino]methyl]-2,3-dihydro-1H-indene-4-carbonitrile] | 513
3 | N#Cc1cccc2c1CC(CNC[C@H](O)[C@@H]1CN(c3ccc4c(c3)NC(=O)CO4)C(=O)O1)C2 (stereo partly drawn) [Example 62, 2-[[[(2S)-2-hydroxy-2-[(5S)-2-oxo-3-(3-oxo-4H-1,4-benzoxazin-6-yl)-1,3-oxazolidin-5-yl]ethyl]amino]methyl]-2,3-dihydro-1H-indene-4-carbonitrile; formic acid] | 208
4 | O=C1COc2ccc(N3CC(CCCNC4Cc5ccc(Cl)cc5C4)OC3=O)nc2N1 (stereo not drawn) [Example 10, 6-[5-[3-[(5-chloro-2,3-dihydro-1H-inden-2-yl)amino]propyl]-2-oxo-1,3-oxazolidin-3-yl]-4H-pyrido[3,2-b][1,4]oxazin-3-one; formic acid] | 447

More lines, now with the values ahead:

Row | IC50 [nM] | SMILES
5 | 382 | CONC(=O)COc1cc(F)c2c(c1)CC(CNCCC1CN(c3cnc4c(n3)NC(=O)CO4)C(=O)O1)C2 (stereo not drawn) [Example 311, 2-[[7-Fluoro-2-[[2-[2-oxo-3-(3-oxo-4H-pyrazino[2,3-b][1,4]oxazin-6-yl)-1,3-oxazolidin-5-yl]ethylamino]methyl]-2,3-dihydro-1H-inden-5-yl]oxy]-N-methoxyacetamide; formic acid]
6 | < 97.7 | NC1(COc2cc(Cl)c3c(c2)CC(NCCCC2CN(c4ccc5c(n4)NC(=O)CO5)C(=O)O2)C3)CC1 (stereo not drawn) [Example 180, 6-[5-[3-[[6-[(1-aminocyclopropyl)methoxy]-4-chloro-2,3-dihydro-1H-inden-2-yl]amino]propyl]-2-oxo-1,3-oxazolidin-3-yl]-4H-pyrido[3,2-b][1,4]oxazin-3-one]
7 | 206 | NC1c2cccc(Cl)c2CC1CCNCC1CN(c2cnc3c(n2)NC(=O)CO3)C(=O)O1 (racemic) [Example 266, 6-[2-Oxo-5-[[2-[rac-1,2-trans-1-amino-4-chloro-2,3-dihydro-1H-inden-2-yl]ethylamino]methyl]-1,3-oxazolidin-3-yl]-4H-pyrazino[2,3-b][1,4]oxazin-3-one]
8 | 1570 | N#Cc1cccc2c1CC(CNCC1CN(c3ccc4c(n3)NC(=O)CO4)C(=O)O1)C2N (racemic) [Example 229, rac-1,2-trans-1-Amino-2-((((2-oxo-3-(3-oxo-3,4-dihydro-2H-pyrido[3,2-b][1,4]oxazin-6-yl)oxazolidin-5-yl)methyl)amino)methyl)-2,3-dihydro-1H-indene-4-carbonitrile]
9 | < 97.7 | O=C1COc2ncc(N3CC(CCNCC4Cc5cc(OC6CNC6)cc(F)c5C4)OC3=O)nc2N1 (stereo not drawn) [Example 358, 6-[5-[2-[[6-(azetidin-3-yloxy)-4-fluoro-2,3-dihydro-1H-inden-2-yl]methylamino]ethyl]-2-oxo-1,3-oxazolidin-3-yl]-4H-pyrazino[2,3-b][1,4]oxazin-3-one; hydrochloride]
